Data from patent US7632851B2, “Benzo[1,2,5]oxadiazoles and benzol[1,2,5]thiadiazoles useful as histopathological staining agents, imaging agents and biomarkers” (Novartis AG, priority 2003, dated 2009).

Test: Fluorescence of the compound (precondition of the staining test)
Type: physicochemical
Experimental: Four-micrometer thick paraffin sections from an APP23 mouse at 26 months of age are deparaffinized in xylene and rehydrated. 10 mg of the compound are dissolved in 1 mL DMSO and diluted with deionized water 1:10. This staining solution is applied on sections for about 20 min. Section background is cleared by washing with 95% ethanol. Finally sections are dehydrated in 99% ethanol, cleared in xylene and mounted with Vectashield™. Sections are investigated using fluorescence microscopy with the following filter combination: Excitation 450490 nm, emission 510 nm. Twenty micrometer thick cryotom sections from a AD brain cortex are air dried and fixated in 4% PFA for 5 min. After washing in tap water sections are stained either with Thioflavine S or with the compound for 5 min and further processed as described above. The compound is dissolved in DMSO and diluted to a final concentration of 0.01% with 50% Ethanol, Thioflavine S is dissolved in 50% Ethanol, final concentration is 0.01%.

Row | SMILES | Fluorescence
1 | FCCOc1ccc(-c2ccc3nonc3c2)cc1 [Example 5, 5-[4-(2-Fluoro-ethoxy)-phenyl]-benzo[1,2,5]oxadiazole] | not fluorescent
2 | O=C(NCCF)c1cncc(-c2ccc3nonc3c2)c1 [Example 11, 5Benzo[1,2,5]oxadiazol-5-yl-N-(2-fluoro-ethyl)-nicotinamide] | not fluorescent
3 | CNc1ccc(-c2ccc3nonc3c2)cc1[N+](=O)[O-] [Example 21, (4Benzo[1,2,5]oxadiazol-5-yl-2-nitro-phenyl)-methyl-amine] | not fluorescent

Results, then the compound that gave them:

Row | Fluorescence | SMILES
4 | not fluorescent | CNc1cccc(-c2ccc3nonc3c2)c1 [Example 4, (3Benzo[1,2,5]oxadiazol-5-yl-phenyl)-methyl-amine]
5 | not fluorescent | O=C(NCCF)c1cnccc1-c1ccc2nonc2c1 [Example 12, 4Benzo[1,2,5]oxadiazol-5-yl-N-(2-fluoro-ethyl)-nicotinamide]
